Measured values: patent US10766866B2, “Deterrents for arthropods and marine organisms” (priority 2017, dated 2020)
Like-named read-outs stand apart in the source and are kept apart here.

Assays:
[1] = molecular target: T1, Hsα2C-AR (human α2C adrenergic receptor) (Homo sapiens, UniProt P18825); experiment: [3H]rauwolscine competition radioligand binding, membranes of clonal mammalian cell lines; conditions: 50 mM Tris pH 7.4, 25° C., 2 hr, Cheng-Prusoff
T1 construct: expressed in transfected cells
T1 sequence (P18825 1-462): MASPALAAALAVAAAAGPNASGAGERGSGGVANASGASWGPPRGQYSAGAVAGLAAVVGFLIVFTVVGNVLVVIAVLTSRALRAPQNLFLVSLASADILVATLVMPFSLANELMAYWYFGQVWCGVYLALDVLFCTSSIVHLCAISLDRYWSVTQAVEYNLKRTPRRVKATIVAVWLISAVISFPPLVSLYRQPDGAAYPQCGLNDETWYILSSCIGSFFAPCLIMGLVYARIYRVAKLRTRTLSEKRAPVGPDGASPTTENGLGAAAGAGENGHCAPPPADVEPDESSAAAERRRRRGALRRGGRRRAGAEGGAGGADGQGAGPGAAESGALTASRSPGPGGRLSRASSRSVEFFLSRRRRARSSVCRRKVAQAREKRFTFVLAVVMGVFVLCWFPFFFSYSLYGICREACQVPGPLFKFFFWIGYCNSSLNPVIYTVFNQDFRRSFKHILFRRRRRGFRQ
Description: (§1) Functional expression of cloned arthropod OctRs and human α2-ARs: The cDNAs for α-like OctRs from different arthropod species (e.g., Anopheles gambiae, Aedes aegypti, Periplaneta americana, Drosophila melanogaster, Ixodes scapularis, Balanus improvises) and for α2-AR subtypes from humans were individually subcloned into mammalian expression vectors. These plasmids, which harbor a resistance gene for the selection drug G418 and the cDNA sequence for the receptor of interest, were individually transfected into mammalian cells using a calcium phosphate precipitation method. G418 selection was then employed to generated stable clonal cell lines. Utilizing rapid filtration radioligand binding techniques, the cell surface density of receptor expression of the individual clonal cell lines was determined at equilibrium and those with similar high levels of expression were selected for further experiments. Briefly, binding conditions were 50 mM Tris binding buffer pH 7.4 at 25° C. and an ice-cold wash buffer 10 mM Tris-HCl, pH 7.4). The radioligand was [3H]rauwolscine and non-specific binding was determined in the presence of 10 μM atipamezole. Following the addition of membranes prepared from the clonal cell lines, samples were mixed and allowed 2 hr. to reach equilibrium before rapid filtration and washing through 0.3% PEI-treated GF/C filters. The radioactivity remaining on the filters was quantified by scintillation counting. Receptor density (Bmax) was back calculated knowing the specific activity of the radioligand and applying the equation for a square hyperbola model: Bmax=(Y·(KD+X))/X, where Y is [specifically bound radioligand] and X=[radio ligand concentration]. The affinity (KD) for the radioligand for each receptor was determined in separate saturation isotherm binding experiments using the same binding conditions as describe above.
(§2) Measurement of compound affinities by competition radioligand binding: Affinities (Ki) for compounds were determined by [3H]rauwolscine competition binding using the same binding conditions as described above. The Ki values were calculated from IC50 values using the Cheng-Prusoff equation.

[2] = molecular target: T2, Hsα2A-AR (human α2A adrenergic receptor) (Homo sapiens, UniProt P08913); experiment: as above; conditions: 50 mM Tris pH 7.4, 25° C., 2 hr, Cheng-Prusoff
T2 construct: expressed in transfected cells; membranes
Description: as §1, §2

[3] = system: Anopheles gambiae mosquito isoform A OctR (AgAOctR); experiment: OctR activation, change in intracellular calcium; format: cell-based; conditions: for selectivity Ki(Hsα2-AR)/EC50(OctR): AgAOctR over Homo sapien α2-AR subtypes
Description: as §1
(§3) Measurement of OctR activation by measuring changes in intracellular calcium: Activation of arthropod α-like OctRs increases intracellular calcium via a Gq-coupling mechanism. This involves activation of phospholipase C leading to an increase in intracellular inositol triphosphate (IP3) which then activates IP3-gated calcium channels in the endoplasmic reticulum causing a transient rise in intracellular calcium. These changes in intracellular calcium upon OctR activation were measured by loading cells with intracellular calcium sensitive dye CALCIUM 6QR and reading the change in calcium-induced fluorescent signal over time on a FlexStation 3 microplate reader.

[4] = system: IsTOctR (Ixodes octopamine receptor), cloned α-like OctR; experiment: OctR activation: change in intracellular calcium (CALCIUM 6QR dye, FlexStation 3) in stably transfected mammalian cells; format: cell-based, Ixodes scapularis
Description: as §1, §3

[5] = molecular target: T3, AgAOctR (Anopheles octopamine receptor isoform A), cloned α-like OctR (Anopheles gambiae, UniProt Q7PRZ8); experiment: as above; format: cell-based; conditions: agonist
T3 construct: Gq calcium readout
T3 sequence (Q7PRZ8 1-592): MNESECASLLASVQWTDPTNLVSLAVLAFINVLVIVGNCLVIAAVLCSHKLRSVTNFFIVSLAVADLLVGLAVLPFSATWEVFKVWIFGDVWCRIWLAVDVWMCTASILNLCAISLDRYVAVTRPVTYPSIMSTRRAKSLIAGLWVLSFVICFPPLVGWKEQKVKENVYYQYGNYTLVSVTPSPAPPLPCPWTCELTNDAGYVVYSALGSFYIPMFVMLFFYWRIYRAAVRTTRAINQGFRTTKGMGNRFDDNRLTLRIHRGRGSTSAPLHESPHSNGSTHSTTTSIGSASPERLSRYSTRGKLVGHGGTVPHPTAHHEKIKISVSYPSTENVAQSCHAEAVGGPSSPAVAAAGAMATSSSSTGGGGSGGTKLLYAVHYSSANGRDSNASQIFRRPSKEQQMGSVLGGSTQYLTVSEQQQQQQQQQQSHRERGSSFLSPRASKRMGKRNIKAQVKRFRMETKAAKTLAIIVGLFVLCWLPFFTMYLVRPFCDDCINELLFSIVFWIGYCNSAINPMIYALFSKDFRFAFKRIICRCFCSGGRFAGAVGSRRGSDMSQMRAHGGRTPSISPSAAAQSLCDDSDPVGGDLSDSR
Description: as §1, §3

[6] = system: Aedes aegypti α-like OctR (AeOctR); experiment: OctR activation, change in intracellular calcium; format: cell-based; conditions: 100 μM; normalized to octopamine at a supersaturating concentration; FIG. 1B
Description: as §1, §3

[7] = molecular target: T4, Drosophila melanogaster α-like OctR (DmOctR) (Drosophila melanogaster, UniProt Q7JQF1); experiment: OctR activation, change in intracellular calcium; format: cell-based; conditions: 100 μM; normalized to octopamine at a supersaturating concentration; FIG. 1A
T4 construct: expressed in transfected cells
T4 sequence (Q7JQF1 1-645): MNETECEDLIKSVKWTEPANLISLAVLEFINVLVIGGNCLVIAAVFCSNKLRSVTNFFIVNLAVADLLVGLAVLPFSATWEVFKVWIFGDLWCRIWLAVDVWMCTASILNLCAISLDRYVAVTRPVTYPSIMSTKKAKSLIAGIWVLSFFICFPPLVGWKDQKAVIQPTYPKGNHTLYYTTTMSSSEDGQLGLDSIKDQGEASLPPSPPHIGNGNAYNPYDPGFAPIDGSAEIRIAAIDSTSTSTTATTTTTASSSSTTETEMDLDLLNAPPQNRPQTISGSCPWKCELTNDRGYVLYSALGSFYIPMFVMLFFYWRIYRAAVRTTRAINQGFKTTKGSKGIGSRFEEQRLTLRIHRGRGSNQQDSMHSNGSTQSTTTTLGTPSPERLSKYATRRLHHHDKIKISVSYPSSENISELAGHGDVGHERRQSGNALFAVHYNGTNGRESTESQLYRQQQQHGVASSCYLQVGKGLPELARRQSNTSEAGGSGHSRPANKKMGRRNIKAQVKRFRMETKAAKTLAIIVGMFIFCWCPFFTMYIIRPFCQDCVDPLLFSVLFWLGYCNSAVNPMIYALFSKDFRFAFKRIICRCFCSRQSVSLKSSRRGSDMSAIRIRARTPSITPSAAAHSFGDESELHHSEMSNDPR
Description: as §1, §3

[8] = molecular target: T5, DmOctR (Drosophila octopamine receptor), cloned α-like OctR (Drosophila melanogaster, UniProt Q7JQF1); experiment: OctR activation: change in intracellular calcium (CALCIUM 6QR dye, FlexStation 3) in stably transfected mammalian cells; format: cell-based; conditions: agonist
T5 construct: Gq calcium readout
T5 sequence (Q7JQF1 1-645): T4 sequence (Q7JQF1 1-645)
Description: as §1, §3

[9] = molecular target: T6, PaOctR (Periplaneta octopamine receptor), cloned α-like OctR (Periplaneta americana, UniProt Q7YWB7); experiment: as above; format: cell-based; conditions: agonist
T6 construct: Gq calcium readout
T6 sequence (Q7YWB7 1-628): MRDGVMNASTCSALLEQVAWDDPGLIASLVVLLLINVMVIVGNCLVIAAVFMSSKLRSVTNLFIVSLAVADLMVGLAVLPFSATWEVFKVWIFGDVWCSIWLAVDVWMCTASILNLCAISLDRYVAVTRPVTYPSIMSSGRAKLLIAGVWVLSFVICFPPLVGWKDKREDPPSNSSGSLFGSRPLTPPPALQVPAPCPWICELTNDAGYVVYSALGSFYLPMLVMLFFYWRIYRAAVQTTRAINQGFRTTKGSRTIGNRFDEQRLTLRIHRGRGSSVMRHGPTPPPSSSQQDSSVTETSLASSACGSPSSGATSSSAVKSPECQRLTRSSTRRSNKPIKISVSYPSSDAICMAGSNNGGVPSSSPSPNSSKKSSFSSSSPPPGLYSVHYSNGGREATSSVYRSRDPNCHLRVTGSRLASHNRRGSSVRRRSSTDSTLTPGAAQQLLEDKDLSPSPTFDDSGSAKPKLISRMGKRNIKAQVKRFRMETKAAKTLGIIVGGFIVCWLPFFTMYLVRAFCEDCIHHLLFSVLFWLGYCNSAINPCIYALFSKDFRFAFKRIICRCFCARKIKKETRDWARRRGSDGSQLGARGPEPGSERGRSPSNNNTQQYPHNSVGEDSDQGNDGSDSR
Description: as §1, §3

[10] = system: AeOctR (Aedes octopamine receptor), cloned α-like OctR; experiment: as above; format: cell-based, Aedes aegypti; conditions: agonist
Description: as §1, §3

[11] = system: Periplaneta americana OctR (PaOctR); experiment: OctR activation, change in intracellular calcium; format: cell-based; conditions: 100 μM; normalized to octopamine at a supersaturating concentration; FIG. 1D
Description: as §1, §3

[12] = system: Ixodes scapularis tick OctR (IsTOctR); experiment: OctR activation, change in intracellular calcium; format: cell-based; conditions: 100 μM; normalized to octopamine at a supersaturating concentration; FIG. 1C
Description: as §1, §3

Aedes mosquito = experiment: Protection against mosquito biting and toxicity to mosquitoes; format: in vivo; conditions: DEET: at the lowest concentration that produces maximal protection against biting (LC50)
[13] = agonist, read-out: IsTOctR (Ixodes octopamine receptor) EC50

T2 sequence (P08913 whole entry): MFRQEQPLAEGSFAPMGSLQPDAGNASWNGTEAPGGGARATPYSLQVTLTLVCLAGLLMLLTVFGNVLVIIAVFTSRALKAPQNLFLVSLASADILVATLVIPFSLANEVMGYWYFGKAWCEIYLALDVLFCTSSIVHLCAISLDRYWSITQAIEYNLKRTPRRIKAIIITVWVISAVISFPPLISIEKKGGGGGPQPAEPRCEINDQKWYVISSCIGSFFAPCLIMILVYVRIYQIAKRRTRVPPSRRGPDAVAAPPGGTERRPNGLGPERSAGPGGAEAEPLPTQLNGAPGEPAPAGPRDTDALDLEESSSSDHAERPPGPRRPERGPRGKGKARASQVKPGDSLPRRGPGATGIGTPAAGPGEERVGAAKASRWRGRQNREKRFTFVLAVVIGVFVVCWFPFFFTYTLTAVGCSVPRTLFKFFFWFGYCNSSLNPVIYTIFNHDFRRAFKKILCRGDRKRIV

Row | Structure (SMILES) | Ki [1] [nM] | Ki [2] [nM] | selectivity Ki(Hsα2-AR)/EC50(OctR) [3] | EC50 [4, 13] [nM] | EC50 [5] [nM] | agonist response (change in intracellular calcium) relative to octopamine [6] | agonist response (change in intracellular calcium) relative to octopamine [7] | EC50 [8] [nM] | EC50 [9] [nM] | further results
1 | Cc1cccc(C(O)c2cnc[nH]2)c1 (stereo not drawn) [AZ1410] | 9440 ± 6470 | 4200 ± 1760 | highly selective | 185 ± 92 | 38 ± 16 | – | – | – | – | –
2 | CC1CCC(C(C)(C)O)C(O)C1 (stereo not drawn) [PMD, para-menthane-3,8-diol] | – | – | – | – | – | < 25% | < 25% | – | – | –
3 | Cc1c(C(O)c2cnc[nH]2)cccc1C(F)(F)F (stereo not drawn) [AZ1399] | 2110 ± 385 | 3210 ± 672 | highly selective | 43 ± 11 | 11 ± 3.7 | – | – | 367 ± 237 | 82 ± 25 | –
4 | Cc1cccc(C(O)c2cnc[nH]2)c1C (stereo not drawn) [AZ0024] | 558 ± 85 | 356 ± 77 | highly selective | 4.4 ± 2.9 | 0.42 ± 0.13 | – | – | 57 ± 13 | 5.9 ± 2.9 | EC50 [10]: 627 ± 274 nM
5 | C/C=C(/c1cnc[nH]1)c1cccc(C)c1C [AZ1440 E-isomer] | – | – | – | – | 10 ± 4.7 | – | – | – | – | EC50 ([4]; read-out: IsTOctR (Ixodes octopamine receptor) EC50, agonist): 90 ± 25 nM
6 | CCCCN(CCC(=O)OCC)C(C)=O [IR3535, ethyl butylacetylaminopropionate] | – | – | – | – | – | did not produce a significant agonist response | did not produce a significant agonist response | – | – | agonist response (change in intracellular calcium) relative to octopamine [11]: did not produce a significant agonist response; agonist response (change in intracellular calcium) relative to octopamine [12]: did not produce a significant agonist response
7 | CCN(CC)C(=O)c1cccc(C)c1 [DEET, N,N-diethyl-meta-toluamide] | – | – | – | – | – | did not produce a significant agonist response | did not produce a significant agonist response | – | – | toxicity to mosquitoes (Aedes mosquito): lethal in half the mosquitoes; agonist response (change in intracellular calcium) relative to octopamine [11]: did not produce a significant agonist response; agonist response (change in intracellular calcium) relative to octopamine [12]: did not produce a significant agonist response
8 | C=C(c1cnc[nH]1)c1cccc(C(F)(F)F)c1C [AZ1415] | – | – | highly selective | 18 ± 6.9 | 0.58 ± 0.61 | – | – | – | – | efficacy (full/partial agonist) ([3]; in words, FIGS. 9-12): full efficacy; potency (EC50) ([3]; in words, FIGS. 9-12): high potency
9 | C/C=C(\c1cnc[nH]1)c1cccc(C)c1C [AZ1409 Z-isomer] | – | – | – | 969 ± 358 | 58 ± 41 | – | – | – | – | –
10 | COC(c1cnc[nH]1)c1cccc(C)c1C (stereo not drawn) [AZ1400] | 973 ± 146 | 1310 ± 247 | highly selective | 35 ± 7.4 | 2.3 ± 0.69 | – | – | 846 ± 440 | 85 ± 34 | EC50 [10]: > 20000 nM
